# Experiments:
# Type in all cases: in vivo, human
# mouth cavity = assay: Evaluation of cooling substances in orange juice
# Protocol: Several cooling substances were evaluated in orange juice.
# trained panelists = assay: Cooling threshold in water, triangle test by trained panelists; settings: determined in water
# Protocol: Prior to sensory analysis, the purity of the synthetic taste compounds was checked by GC/MS. Determination of the cooling, as well as the aroma threshold, of the compounds was performed by trained panelists. Nasal odor thresholds (Guth, H.; Grosch, W. J. Am. Oil Chem. Soc. 1993, 70, 513-518), as well as cooling thresholds, were determined by triangle tests using tap water as the solvent. The samples were presented in order of increasing concentrations and the threshold values evaluated in three separate sessions were averaged. The values between individuals and separate sessions differed by not more than one dilution step.
# [1] = Tasting of cooling compounds in Vittel mineral water
# Protocol: Solutions of 10%-menthol, 10% 5-MPC and 10% MPF, respectively, in ethanol were diluted with Vittel™ mineral water. The solutions were tasted and compared with pure Vittel™ water.
# [2] = tested on: skin surface on the inside of the right forearm; assay: Topical testing of cooling intensity on the forearm; settings: scale 0 (no effect) to 5 (very strong)
# Protocol: Topical thresholds of cooling compounds 5-MPF, 2(5H)-DMPF, 2(5H)-MPF and MPF were determined as follows: An aliquot (0.5 mL) of a solution, […], was applied to a circular area (10 cm^2) of the skin surface on the inside of the right forearm, midway between the wrist and the elbow, and were rubbed for 1 min. In parallel, an aliquot (0.5 mL) of pure tap water was applied as the blank onto the skin of the left forearm. After 1 min, the skin was dried. A panel of 10 subjects (male and female) were asked to rank the cooling intensity on a scale from 0 (no effect) to 5 (very strong). The values evaluated in three different sessions at two days were averaged. The values between individuals and separate sessions differed not more than 2 scores.
# [3] = Cooling threshold in milk chocolate; settings: for Cooling effect [mg/100 g chocolate]: cooling threshold in milk chocolate
# Source text: In an additional experiment, the cooling thresholds of 3-MPC, 5-MPC, MPF, 2(5H)-MPF and 2(5H)-DMPF have been determined in chocolate. […] The ratio for compounds of the invention is typically less than that of menthol, preferably less than 9, more preferably less than about 3. In other embodiments, the cooling threshold to odor threshold ratio is less than about 1 or less than about 0.1.
# mouth = assay: Taste testing of sugar confectionery (candies)
# Protocol: Sugar (100 g) was heated together with water (15 g) in a beaker on a hot plate. After the mixture became a clear solution, the sugar syrup was heated further until it became viscous due to the evaporation of water. Then 5-MPC (20 mg) and MPF (100 mg), respectively, were added. The viscous liquid was then poured into molds (3 g each) and cooled down to room temperature. The candies, which had been formed in the molds, were demolded and used for taste testing.
# Application in ice cream = settings: 20 mg/kg in ice cream
# Protocol: Full-fat cream (250 g), milk (250 ml) and sugar (100 g) were mixed and stirred until the sugar was dissolved. Then the mixture was poured into an ice cream machine (Il Gelataio Super, Simac Inc., Gessate, Italy) and frozen within 30 minutes while stirring. In the same way, ice cream was prepared with 5-MPC (20 mg/kg). […] The cool refreshing impression of this ice cream persisted much longer than with the unflavored reference compound.
compound,measurement,setting,value
"CC1CCC(C(C)C)C(O)C1 (single isomer, unassigned; (-)) [(−)-Menthol, reference compound]",cooling effect,mouth cavity; 20 mg/L in orange juice,strong cooling effect
same,Cooling threshold,trained panelists,0.9 to 1.9 mg/kg
same,Flavor: cooling effect,[1]; 10 mg/L in Vittel mineral water,"Pronounced cooling effect, strong"
"CC1=C(N2CCCC2)C(=O)OC1C (stereo not drawn) [2(5H)-DMPF, 4,5-Dimethyl-3-(1-pyrrolidinyl)-2(5H)-furanone]",Cooling threshold,trained panelists,2.0 to 4.0 mg/kg
same,Cooling intensity,[2]; 0.00625 % in tap water,0
same,Cooling intensity,[2]; 0.0125 % in tap water,1
same,Cooling intensity,[2]; 0.025 % in tap water,3
same,Cooling intensity,[2]; 0.05 % in tap water,5
same,Cooling intensity,[2]; 0.1 % in tap water,5
same,Cooling intensity,[2]; 0.2 % in tap water,5
same,Cooling intensity,[2]; 0.5 % in tap water,5
same,Cooling intensity,[2]; 1.0 % in tap water,5
same,Cooling effect [mg/100 g chocolate],[3],5.0-7.5 mg/100 g chocolate
"CC1=C(N2CCCC2)C(=O)OC1 [2(5H)-MPF, 4-Methyl-3-(1-pyrrolidinyl)-2(5H)-furanone]",Cooling threshold,trained panelists,0.02 to 0.06 mg/kg
same,Cooling intensity,[2]; 0.00020 % in tap water,0
same,Cooling intensity,[2]; 0.00039 % in tap water,1
same,Cooling intensity,[2]; 0.00078 % in tap water,2
same,Cooling intensity,[2]; 0.00156 % in tap water,3
same,Cooling intensity,[2]; 0.00313 % in tap water,5
same,Cooling intensity,[2]; 0.00625 % in tap water,5
same,Cooling effect [mg/100 g chocolate],[3],0.25-0.5 mg/100 g chocolate
"CC1=C(N2CCCC2)C(=O)CC1C (stereo not drawn) [3,4-DMPC, 3,4-Dimethyl-2-(1-pyrrolidinyl)-2-cyclopenten-1-one]",Cooling threshold,trained panelists,51 to 86 mg/kg
"CC1=C(N2CCCC2)C(=O)C(C)C1 (stereo not drawn) [3,5-DMPC, 3,5-Dimethyl-2-(1-pyrrolidinyl)-2-cyclopenten-1-one]",Cooling threshold,trained panelists,33 to 54 mg/kg
"CC1=C(N2CCCC2)C(=O)CC1 [3-MPC, 3-Methyl-2-(1-pyrrolidinyl)-2-cyclopenten-1-one]",Cooling threshold,trained panelists,29 to 44 mg/kg
same,Cooling effect [mg/100 g chocolate],[3],38-63 mg/100 g chocolate
"CC1=C(N2CCCC2)C(=O)CCC1 [3-MPCH, 3-Methyl-2-(1-pyrrolidinyl)-2-cyclohexen-1-one]",Cooling threshold,trained panelists,90 to 150 mg/kg
"CC1=C(N2CCCCC2)C(=O)CC1 [3-MPipC, 3-Methyl-2-(1-piperidinyl)-2-cyclopenten-1-one]",Cooling threshold,trained panelists,60 to 100 mg/kg
"CC1=C(N2CCCC2C(=O)O)C(=O)CC1 (stereo not drawn) [3-MProC, 3-Methyl-2-(2-carboxy-1-pyrrolidinyl)-2-cyclopentene-1-one]",Cooling threshold,trained panelists,490 to 735 mg/kg
"CC1C=C(N2CCCC2)C(=O)C1C (stereo not drawn) [4,5-DMPC, 4,5-Dimethyl-2-(1-pyrrolidinyl)-2-cyclopenten-1-one]",Cooling threshold,trained panelists,68 to 113 mg/kg
"CCC1CC=C(N2CCCC2)C1=O (stereo not drawn) [5-EPC, 5-Ethyl-2-(1-pyrrolidinyl)-2-cyclopenten-1-one]",Cooling threshold,trained panelists,27 to 43 mg/kg
"COC(=O)C1CCCN1C1=CCC(C)C1=O (stereo not drawn) [5-MMeproC, 5-Methyl-2-(2-methoxycarbonyl-1-pyrrolidinyl)-2-cyclopentene-1-one]",Cooling threshold,trained panelists,112 to 188 mg/kg
"CC1CC=C(N2CCCC2)C1=O (stereo not drawn) [5-MPC, 5-Methyl-2-(1-pyrrolidinyl)-2-cyclopenten-1-one]",cooling effect,mouth cavity; 200 mg/L in orange juice,strong cooling effect
same,Cooling threshold,trained panelists,4.5 to 9 mg/kg
same,Cooling intensity,[2]; 0.00020 % in tap water,0
same,Cooling intensity,[2]; 0.00039 % in tap water,0
same,Cooling intensity,[2]; 0.00078 % in tap water,0
same,Cooling intensity,[2]; 0.00156 % in tap water,0
same,Cooling intensity,[2]; 0.00313 % in tap water,0
same,Cooling intensity,[2]; 0.00625 % in tap water,0
same,Cooling intensity,[2]; 0.0125 % in tap water,0
same,Cooling intensity,[2]; 0.025 % in tap water,0
same,Cooling intensity,[2]; 0.05 % in tap water,0
same,Cooling intensity,[2]; 0.1 % in tap water,0
same,Cooling intensity,[2]; 0.2 % in tap water,1
same,Cooling intensity,[2]; 0.5 % in tap water,3
same,Cooling intensity,[2]; 1.0 % in tap water,5
same,cooling effect in the mouth,mouth; 20 mg added to syrup of 100 g sugar,pronounced cooling effect
same,Cooling effect [mg/100 g chocolate],[3],2.3-3.7 mg/100 g chocolate
same,fold higher cooling threshold than 2(5H)-MPF,"[3]; in chocolate, compared with 2(5H)-MPF",8 fold
same,cooling effect,Application in ice cream,pronounced long lasting cooling effect
"CCN(CC)C1=CCC(C)C1=O (stereo not drawn) [5-MdeaC, 5-Methyl-2-diethylamino-2-cyclopenten-1-one]",Cooling threshold,trained panelists,12 to 20 mg/kg
"CC1CC=C(N2CCCCC2)C1=O (stereo not drawn) [5-MpipC, 5-Methyl-2-(1-piperidinyl)-2-cyclopenten-1-one]",Cooling threshold,trained panelists,16 to 24 mg/kg
"CC1CCC=C(N2CCCC2)C1=O (stereo not drawn) [6-MPCH, 6-Methyl-2-(1-pyrrolidinyl)-2-cyclohexen-1-one]",Cooling threshold,trained panelists,27 to 45 mg/kg
"CC1=C(N2CCCC2)C(=O)C(C)O1 (stereo not drawn) [DMPF, 2,5-Dimethyl-4-(1-pyrrolidinyl)-3(2H)-furanone]",Cooling threshold,trained panelists,100 to 140 mg/kg
"CC1=C(N2CCCC2)C(=O)CO1 [MPF, 5-Methyl-4-(1-pyrrolidinyl)-3(2H)-furanone]",cooling effect,mouth cavity; 1000 mg/L in orange juice,pronounced cooling effect
same,Cooling threshold,trained panelists,1.5 to 3.0 mg/kg
same,Cooling intensity,[2]; 0.00020 % in tap water,0
same,Cooling intensity,[2]; 0.00039 % in tap water,0
same,Cooling intensity,[2]; 0.00078 % in tap water,0
same,Cooling intensity,[2]; 0.00156 % in tap water,0
same,Cooling intensity,[2]; 0.00313 % in tap water,0
same,Cooling intensity,[2]; 0.00625 % in tap water,0
same,Cooling intensity,[2]; 0.0125 % in tap water,0
same,Cooling intensity,[2]; 0.025 % in tap water,0
same,Cooling intensity,[2]; 0.05 % in tap water,1
same,Cooling intensity,[2]; 0.1 % in tap water,2
same,Cooling intensity,[2]; 0.2 % in tap water,4
same,Cooling intensity,[2]; 0.5 % in tap water,5
same,Cooling intensity,[2]; 1.0 % in tap water,5
same,Flavor: cooling effect,[1]; 400 mg/L in Vittel mineral water,Pronounced cooling effect
same,cooling effect in the mouth,mouth; 100 mg added to syrup of 100 g sugar,pronounced cooling effect
same,Cooling effect [mg/100 g chocolate],[3],0.8-1.5 mg/100 g chocolate
